Patent US11873517B2, “Candida tropicalis strain having improved tolerance to the cytotoxicity of substrates, and method for producing dicarboxylic acid using same” (priority 2018, dated 2024)

Tested on: Candida tropicalis MYA_3404 strain
Test: toxicity test of substrates and product: growth of the strain in YNB medium
Details: 36 hours; for growth of the strain in the medium to which the substance was added, compared to the control: added at 5 g/L to YNB medium, 30° C., 200 rpm, FIG. 1

| Compound | growth of the strain in the medium to which the substance was added, compared to the control | cytotoxicity compared to the sebacic acid (5 g/L in YNB medium) |
| --- | --- | --- |
| CCCCCCCCCC(=O)O [DA, decanoic acid] | did not grow | – |
| CCCCCCCCCC(=O)OC [DAME, decanoic acid methyl ester] | did not grow | stronger cytotoxicity |
| O=C(O)CCCCCCCCC(=O)O [sebacic acid] | the growth rate and the total cell mass of the strain decreased | – |
